Results as given in PMC8632988, “Inhibition of SYK and cSrc kinases can protect bone and cartilage in preclinical models of osteoarthritis and rheumatoid arthritis” (Scientific Reports, 2021).
Where “and” joins values, the source holds several entries; their conditions need not be identical. Identical values can stand only once.

Tests used:
Experiment in all cases: Kinase selectivity profile assay
Format in all cases: biochemical
ABL2/ARG = target: T1, ABL2/ARG (Homo sapiens, UniProt P42684); settings: for remaining activity at 0.5 µM: 500 nM, relative to DMSO, read-out: Residual enzymatic activity
T1 construct: purchased Reaction Biology Corporation (assay service)
In short: (§1)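 Radiometric kinase assay run by a standard protocol. Unbound phosphate was removed by washing filters in phosphoric acid, and product radioactivity gave percent remaining kinase activity versus DMSO vehicle reactions. Run in duplicate.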

ACK1 = target: T2, ACK1 (Homo sapiens, UniProt Q07912); settings: for remaining activity at 0.5 µM: 500 nM, relative to DMSO, read-out: Residual enzymatic activity
T2 construct: purchased Reaction Biology Corporation (assay service)
In short: as §1

AKT3 = target: T3, AKT3 (Homo sapiens, UniProt Q9Y243); settings: 500 nM; relative to DMSO; read-out: Residual enzymatic activity
T3 construct: purchased Reaction Biology Corporation
In short: as §1

ALK1/ACVRL1 = target: T4, ALK1/ACVRL1 (Homo sapiens, UniProt P37023); settings: 500 nM; relative to DMSO; read-out: Residual enzymatic activity
T4 construct: purchased Reaction Biology Corporation
In short: as §1

ALK4/ACVR1B = target: T5, ALK4/ACVR1B (Homo sapiens, UniProt P36896); settings: 500 nM; relative to DMSO; read-out: Residual enzymatic activity
T5 construct: purchased Reaction Biology Corporation
In short: as §1

CAMK2g = target: T6, CAMK2g (Homo sapiens, UniProt Q13555); settings: 500 nM; relative to DMSO; read-out: Residual enzymatic activity
T6 construct: purchased Reaction Biology Corporation
In short: as §1

CDK3/cyclin E = target: T7, CDK3/cyclin E (Homo sapiens, UniProt Q00526); settings: 500 nM; relative to DMSO; read-out: Residual enzymatic activity
T7 construct: purchased Reaction Biology Corporation
In short: as §1

CDK4/cyclin D3 = target: T8, CDK4/cyclin D3 (Homo sapiens, UniProt P11802); settings: 500 nM; relative to DMSO; read-out: Residual enzymatic activity
T8 construct: purchased Reaction Biology Corporation
In short: as §1

CDK6/cyclin D3 = target: T9, CDK6/cyclin D3 (Homo sapiens, UniProt Q00534); settings: 500 nM; relative to DMSO; read-out: Residual enzymatic activity
T9 construct: purchased Reaction Biology Corporation
In short: as §1

DAPK1 = target: T10, DAPK1 (Homo sapiens, UniProt P53355); settings: 500 nM; relative to DMSO; read-out: Residual enzymatic activity
T10 construct: purchased Reaction Biology Corporation
In short: as §1

EPHA1 = target: T11, EPHA1 (Homo sapiens, UniProt P21709); settings: for remaining activity at 0.5 µM: 500 nM, relative to DMSO, read-out: Residual enzymatic activity
T11 construct: purchased Reaction Biology Corporation (assay service)
T11 sequence (P21709 26-976): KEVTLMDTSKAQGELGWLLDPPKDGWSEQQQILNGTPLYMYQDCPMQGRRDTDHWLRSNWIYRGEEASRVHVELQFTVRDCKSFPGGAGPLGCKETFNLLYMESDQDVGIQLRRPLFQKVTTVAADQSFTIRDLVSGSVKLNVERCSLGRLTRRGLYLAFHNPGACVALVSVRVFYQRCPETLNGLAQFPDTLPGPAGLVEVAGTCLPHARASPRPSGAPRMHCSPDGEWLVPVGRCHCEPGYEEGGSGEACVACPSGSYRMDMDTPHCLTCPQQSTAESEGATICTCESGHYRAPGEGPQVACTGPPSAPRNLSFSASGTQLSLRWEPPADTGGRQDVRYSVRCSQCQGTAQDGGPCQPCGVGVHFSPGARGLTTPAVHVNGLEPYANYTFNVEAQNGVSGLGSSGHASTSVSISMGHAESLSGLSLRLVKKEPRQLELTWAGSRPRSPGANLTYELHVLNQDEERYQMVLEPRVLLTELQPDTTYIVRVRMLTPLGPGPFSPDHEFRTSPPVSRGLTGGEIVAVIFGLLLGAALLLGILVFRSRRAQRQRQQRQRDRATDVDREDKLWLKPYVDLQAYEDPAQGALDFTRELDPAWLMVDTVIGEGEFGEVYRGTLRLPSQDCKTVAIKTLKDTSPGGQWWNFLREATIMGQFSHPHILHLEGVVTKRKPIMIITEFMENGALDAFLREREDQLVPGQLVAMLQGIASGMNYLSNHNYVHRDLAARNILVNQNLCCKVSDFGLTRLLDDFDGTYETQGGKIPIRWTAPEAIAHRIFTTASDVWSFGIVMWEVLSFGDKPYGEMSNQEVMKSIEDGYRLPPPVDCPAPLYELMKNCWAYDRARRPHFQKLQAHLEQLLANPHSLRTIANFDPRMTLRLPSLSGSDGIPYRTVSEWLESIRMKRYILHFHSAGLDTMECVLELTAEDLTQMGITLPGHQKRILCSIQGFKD
In short: as §1

FRK/PTK5 = target: T12, FRK/PTK5 (Homo sapiens, UniProt P42685); settings: 500 nM, relative to DMSO; for remaining activity at 0.5 µM: read-out: Residual enzymatic activity
T12 construct: purchased Reaction Biology Corporation
In short: as §1

Haspin = target: T13, Haspin (Homo sapiens, UniProt Q8TF76); settings: 500 nM; relative to DMSO; read-out: Residual enzymatic activity
T13 construct: purchased Reaction Biology Corporation
In short: as §1

JNK3 = target: T14, JNK3 (Homo sapiens, UniProt P53779); settings: 500 nM; relative to DMSO; read-out: Residual enzymatic activity
T14 construct: purchased Reaction Biology Corporation
In short: as §1

LOK/STK10 = target: T15, LOK/STK10 (Homo sapiens, UniProt O94804); settings: 500 nM; relative to DMSO; read-out: Residual enzymatic activity
T15 construct: purchased Reaction Biology Corporation
In short: as §1

LYN = target: T16, LYN (Homo sapiens, UniProt P07948); settings: for remaining activity at 0.5 µM: 500 nM, relative to DMSO, read-out: Residual enzymatic activity
T16 construct: purchased Reaction Biology Corporation (assay service)
In short: as §1

NEK1 = target: T17, NEK1 (Homo sapiens, UniProt Q96PY6); settings: 500 nM; relative to DMSO; read-out: Residual enzymatic activity
T17 construct: purchased Reaction Biology Corporation
In short: as §1

NEK4 = target: T18, NEK4 (Homo sapiens, UniProt P51957); settings: 500 nM; relative to DMSO; read-out: Residual enzymatic activity
T18 construct: purchased Reaction Biology Corporation
In short: as §1

PKCg = target: T19, PKCg (Homo sapiens, UniProt P05129); settings: 500 nM; relative to DMSO; read-out: Residual enzymatic activity
T19 construct: purchased Reaction Biology Corporation
In short: as §1

PKG1a = target: T20, PKG1a (Homo sapiens, UniProt Q13976); settings: 500 nM; relative to DMSO; read-out: Residual enzymatic activity
T20 construct: purchased Reaction Biology Corporation
In short: as §1

PLK2 = target: T21, PLK2 (Homo sapiens, UniProt Q9NYY3); settings: 500 nM; relative to DMSO; read-out: Residual enzymatic activity
T21 construct: purchased Reaction Biology Corporation
In short: as §1

RIPK3 = target: T22, RIPK3 (Homo sapiens, UniProt Q9Y572); settings: 500 nM; relative to DMSO; read-out: Residual enzymatic activity
T22 construct: purchased Reaction Biology Corporation
In short: as §1

SIK3 = target: T23, SIK3 (Homo sapiens, UniProt Q9Y2K2); settings: 500 nM; relative to DMSO; read-out: Residual enzymatic activity
T23 construct: purchased Reaction Biology Corporation
In short: as §1

TGFBR2 = target: T24, TGFBR2 (Homo sapiens, UniProt P37173); settings: 500 nM; relative to DMSO; read-out: Residual enzymatic activity
T24 construct: purchased Reaction Biology Corporation
In short: as §1

WNK3 = target: T25, WNK3 (Homo sapiens, UniProt Q9BYP7); settings: 500 nM; relative to DMSO; read-out: Residual enzymatic activity
T25 construct: purchased Reaction Biology Corporation
In short: as §1

ZAK/MLTK = target: T26, ZAK/MLTK (Homo sapiens, UniProt Q9NYL2); settings: 500 nM; relative to DMSO; read-out: Residual enzymatic activity
T26 construct: purchased Reaction Biology Corporation
In short: as §1

c-MET = target: T27, c-MET (Homo sapiens, UniProt P08581); settings: 500 nM; relative to DMSO; read-out: Residual enzymatic activity
T27 construct: purchased Reaction Biology Corporation
In short: as §1

[1] = 10-dose mode, threefold serial dilution from 10 μM

T16 sequence (P07948 whole entry): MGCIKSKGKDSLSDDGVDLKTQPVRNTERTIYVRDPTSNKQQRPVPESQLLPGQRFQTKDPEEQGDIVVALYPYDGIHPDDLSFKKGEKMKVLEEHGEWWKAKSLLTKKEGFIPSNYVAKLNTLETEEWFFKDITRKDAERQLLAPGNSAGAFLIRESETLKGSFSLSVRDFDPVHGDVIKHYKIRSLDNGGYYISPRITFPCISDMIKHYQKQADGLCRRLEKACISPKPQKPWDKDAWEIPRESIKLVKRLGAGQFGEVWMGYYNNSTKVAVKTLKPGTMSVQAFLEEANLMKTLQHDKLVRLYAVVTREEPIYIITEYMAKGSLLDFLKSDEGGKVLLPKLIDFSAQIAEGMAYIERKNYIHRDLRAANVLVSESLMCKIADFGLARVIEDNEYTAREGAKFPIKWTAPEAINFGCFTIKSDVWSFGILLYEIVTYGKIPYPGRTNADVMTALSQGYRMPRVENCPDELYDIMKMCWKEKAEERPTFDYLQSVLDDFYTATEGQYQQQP
T12 sequence (P42685 whole entry): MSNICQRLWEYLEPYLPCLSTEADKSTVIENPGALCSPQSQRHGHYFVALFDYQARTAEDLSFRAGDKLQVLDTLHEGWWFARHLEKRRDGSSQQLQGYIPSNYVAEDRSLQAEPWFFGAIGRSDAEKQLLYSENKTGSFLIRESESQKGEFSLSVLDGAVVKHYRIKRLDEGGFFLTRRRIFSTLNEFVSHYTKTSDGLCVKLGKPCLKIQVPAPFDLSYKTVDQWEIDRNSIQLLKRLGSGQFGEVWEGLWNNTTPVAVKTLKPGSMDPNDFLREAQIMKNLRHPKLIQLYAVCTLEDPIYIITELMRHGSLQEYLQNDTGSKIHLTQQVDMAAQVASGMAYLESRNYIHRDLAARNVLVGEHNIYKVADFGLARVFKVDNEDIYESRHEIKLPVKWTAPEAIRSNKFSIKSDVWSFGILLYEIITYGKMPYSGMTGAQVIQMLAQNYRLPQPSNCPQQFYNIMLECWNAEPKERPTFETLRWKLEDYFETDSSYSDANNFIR
T1 sequence (P42684 whole entry): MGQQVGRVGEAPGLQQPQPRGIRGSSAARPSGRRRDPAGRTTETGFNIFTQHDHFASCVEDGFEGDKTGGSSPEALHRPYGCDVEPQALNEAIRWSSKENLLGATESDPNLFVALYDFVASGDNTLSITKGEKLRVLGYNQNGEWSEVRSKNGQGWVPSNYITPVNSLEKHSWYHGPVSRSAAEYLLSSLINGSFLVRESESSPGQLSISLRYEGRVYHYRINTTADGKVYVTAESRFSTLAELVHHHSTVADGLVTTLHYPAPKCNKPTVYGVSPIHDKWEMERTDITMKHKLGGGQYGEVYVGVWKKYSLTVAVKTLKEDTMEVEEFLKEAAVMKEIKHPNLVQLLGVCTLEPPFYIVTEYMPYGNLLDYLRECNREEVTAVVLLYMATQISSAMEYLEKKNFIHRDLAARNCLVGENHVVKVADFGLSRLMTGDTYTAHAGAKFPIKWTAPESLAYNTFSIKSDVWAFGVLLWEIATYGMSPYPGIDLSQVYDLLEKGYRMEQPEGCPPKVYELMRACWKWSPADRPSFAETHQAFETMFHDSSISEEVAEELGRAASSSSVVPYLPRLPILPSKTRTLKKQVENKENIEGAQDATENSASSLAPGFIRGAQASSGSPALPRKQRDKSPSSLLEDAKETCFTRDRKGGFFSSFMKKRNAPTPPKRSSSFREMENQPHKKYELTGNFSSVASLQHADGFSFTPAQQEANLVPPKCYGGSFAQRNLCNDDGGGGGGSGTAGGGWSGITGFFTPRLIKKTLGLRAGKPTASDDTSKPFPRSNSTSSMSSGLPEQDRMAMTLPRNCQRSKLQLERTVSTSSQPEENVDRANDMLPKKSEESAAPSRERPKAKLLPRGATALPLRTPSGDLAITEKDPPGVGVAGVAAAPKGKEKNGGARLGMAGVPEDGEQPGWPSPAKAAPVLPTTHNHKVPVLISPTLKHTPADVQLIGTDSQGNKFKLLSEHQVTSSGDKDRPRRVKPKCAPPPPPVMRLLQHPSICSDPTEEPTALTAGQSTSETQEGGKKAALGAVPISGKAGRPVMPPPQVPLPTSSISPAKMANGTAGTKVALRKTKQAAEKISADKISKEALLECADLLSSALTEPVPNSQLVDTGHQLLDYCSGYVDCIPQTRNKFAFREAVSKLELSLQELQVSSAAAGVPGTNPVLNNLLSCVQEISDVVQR
T2 sequence (Q07912 whole entry): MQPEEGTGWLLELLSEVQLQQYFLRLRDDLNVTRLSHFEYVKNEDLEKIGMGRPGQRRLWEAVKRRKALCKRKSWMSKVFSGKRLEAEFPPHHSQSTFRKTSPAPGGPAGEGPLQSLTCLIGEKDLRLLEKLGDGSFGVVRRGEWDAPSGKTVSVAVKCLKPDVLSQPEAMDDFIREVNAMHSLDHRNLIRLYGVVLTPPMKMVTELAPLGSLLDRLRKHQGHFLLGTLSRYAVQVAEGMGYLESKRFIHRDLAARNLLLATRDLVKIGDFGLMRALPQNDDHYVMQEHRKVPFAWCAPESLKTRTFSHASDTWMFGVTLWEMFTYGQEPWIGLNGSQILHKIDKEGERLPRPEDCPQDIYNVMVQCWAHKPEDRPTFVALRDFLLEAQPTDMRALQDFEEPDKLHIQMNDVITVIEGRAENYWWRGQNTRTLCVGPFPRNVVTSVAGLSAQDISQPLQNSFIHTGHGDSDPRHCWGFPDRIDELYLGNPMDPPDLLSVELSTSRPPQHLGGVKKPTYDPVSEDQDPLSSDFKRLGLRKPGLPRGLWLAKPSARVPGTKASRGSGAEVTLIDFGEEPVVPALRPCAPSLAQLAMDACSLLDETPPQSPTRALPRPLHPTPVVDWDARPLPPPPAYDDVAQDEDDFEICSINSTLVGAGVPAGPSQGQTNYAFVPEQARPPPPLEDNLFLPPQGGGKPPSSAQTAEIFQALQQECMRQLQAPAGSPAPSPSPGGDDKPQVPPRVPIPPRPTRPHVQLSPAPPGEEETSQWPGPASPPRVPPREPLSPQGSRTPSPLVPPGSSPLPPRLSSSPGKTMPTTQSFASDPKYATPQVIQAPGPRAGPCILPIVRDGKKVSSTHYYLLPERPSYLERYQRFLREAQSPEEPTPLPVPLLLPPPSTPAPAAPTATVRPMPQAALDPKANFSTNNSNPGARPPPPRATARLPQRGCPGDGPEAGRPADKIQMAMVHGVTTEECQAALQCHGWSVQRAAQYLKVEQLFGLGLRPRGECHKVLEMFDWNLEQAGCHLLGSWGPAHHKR
T21 sequence (Q9NYY3 whole entry): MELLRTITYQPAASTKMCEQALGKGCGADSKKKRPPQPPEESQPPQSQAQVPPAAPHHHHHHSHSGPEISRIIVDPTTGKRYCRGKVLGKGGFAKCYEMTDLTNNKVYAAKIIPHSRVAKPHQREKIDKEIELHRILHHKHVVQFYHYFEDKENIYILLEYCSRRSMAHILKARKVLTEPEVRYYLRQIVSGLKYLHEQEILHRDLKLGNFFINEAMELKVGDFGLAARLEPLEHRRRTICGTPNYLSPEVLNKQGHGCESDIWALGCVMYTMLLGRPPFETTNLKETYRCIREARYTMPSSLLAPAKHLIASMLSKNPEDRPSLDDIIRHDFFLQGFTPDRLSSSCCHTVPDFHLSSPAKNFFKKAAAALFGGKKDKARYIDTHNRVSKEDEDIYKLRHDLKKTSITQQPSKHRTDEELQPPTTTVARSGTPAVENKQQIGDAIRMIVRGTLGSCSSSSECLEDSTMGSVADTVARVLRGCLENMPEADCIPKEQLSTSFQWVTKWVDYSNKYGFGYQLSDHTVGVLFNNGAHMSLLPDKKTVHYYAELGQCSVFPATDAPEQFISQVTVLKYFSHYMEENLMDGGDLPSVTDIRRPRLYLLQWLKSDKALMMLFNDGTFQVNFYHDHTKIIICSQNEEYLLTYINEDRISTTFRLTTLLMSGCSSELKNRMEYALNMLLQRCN
T6 sequence (Q13555 whole entry): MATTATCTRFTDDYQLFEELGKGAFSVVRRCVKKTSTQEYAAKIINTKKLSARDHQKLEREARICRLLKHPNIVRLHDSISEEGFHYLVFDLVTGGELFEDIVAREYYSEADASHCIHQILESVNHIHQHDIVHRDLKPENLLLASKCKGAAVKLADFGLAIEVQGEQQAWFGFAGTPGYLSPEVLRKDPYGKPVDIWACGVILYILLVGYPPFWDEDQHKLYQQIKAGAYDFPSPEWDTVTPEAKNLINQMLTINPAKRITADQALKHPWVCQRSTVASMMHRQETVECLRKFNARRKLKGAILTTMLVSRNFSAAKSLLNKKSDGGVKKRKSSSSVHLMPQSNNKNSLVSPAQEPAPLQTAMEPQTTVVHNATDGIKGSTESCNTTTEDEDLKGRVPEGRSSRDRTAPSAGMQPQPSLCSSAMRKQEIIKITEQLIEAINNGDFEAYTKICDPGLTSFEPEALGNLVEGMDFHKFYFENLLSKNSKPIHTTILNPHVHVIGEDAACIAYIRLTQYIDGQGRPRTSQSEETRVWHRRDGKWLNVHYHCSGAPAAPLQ
T22 sequence (Q9Y572 whole entry): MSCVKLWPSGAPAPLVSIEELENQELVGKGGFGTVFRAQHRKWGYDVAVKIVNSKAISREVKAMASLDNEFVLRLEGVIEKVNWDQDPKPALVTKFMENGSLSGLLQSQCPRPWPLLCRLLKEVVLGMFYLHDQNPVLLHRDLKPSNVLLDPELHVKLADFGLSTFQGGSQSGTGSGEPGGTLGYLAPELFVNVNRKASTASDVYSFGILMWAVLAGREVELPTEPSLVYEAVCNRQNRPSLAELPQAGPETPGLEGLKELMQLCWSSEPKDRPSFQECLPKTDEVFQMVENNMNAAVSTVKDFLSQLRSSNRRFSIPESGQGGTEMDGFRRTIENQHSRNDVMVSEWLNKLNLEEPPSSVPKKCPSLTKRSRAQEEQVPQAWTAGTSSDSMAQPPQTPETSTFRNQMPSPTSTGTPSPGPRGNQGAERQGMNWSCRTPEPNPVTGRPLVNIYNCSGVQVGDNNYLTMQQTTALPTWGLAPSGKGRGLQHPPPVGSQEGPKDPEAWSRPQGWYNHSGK

Compound	remaining activity at 0.5 µM (ABL2/ARG)	remaining activity at 0.5 µM (ACK1)	remaining activity at 0.5 µM (AKT3)	remaining activity at 0.5 µM (ALK1/ACVRL1)	remaining activity at 0.5 µM (ALK4/ACVR1B)	remaining activity at 0.5 µM (CAMK2g)	remaining activity at 0.5 µM (CDK3/cyclin E)	remaining activity at 0.5 µM (CDK4/cyclin D3)	remaining activity at 0.5 µM (CDK6/cyclin D3)	remaining activity at 0.5 µM (DAPK1)	remaining activity at 0.5 µM (EPHA1)	remaining activity at 0.5 µM (FRK/PTK5)	remaining activity at 0.5 µM (Haspin)	remaining activity at 0.5 µM (JNK3)	remaining activity at 0.5 µM (LOK/STK10)	remaining activity at 0.5 µM (LYN)	remaining activity at 0.5 µM (NEK1)	remaining activity at 0.5 µM (NEK4)	remaining activity at 0.5 µM (PKCg)	remaining activity at 0.5 µM (PKG1a)	further results
COc1cc(Nc2ncnc(Nc3cc4c(cn3)NC(=O)C(C)(C)O4)n2)cc(OC)c1OC [MT-SYK-03]	32.3%	5.4%	103%	126%	125%	100%	99%	100%	101%	113%	48.3%	> 54%	101%	96.4%	75.7%	12.5%	52.7%	109%	103%	94.8%	IC50 (ABL2/ARG; [1]): 120 nM; IC50 (ACK1; [1]): 86 nM and 85.7 nM; IC50 (EPHA1; [1]): 457 nM; Residual enzymatic activity (FRK/PTK5): 56.5%; IC50 (LYN; [1]): 8.8 nM; inhibition at 0.5 µM (LYN; read-out: Inhibition at 500 nM): > 90%; remaining activity at 0.5 µM (PLK2): 81.6%; remaining activity at 0.5 µM (RIPK3): 108%; remaining activity at 0.5 µM (SIK3): 83.4%; remaining activity at 0.5 µM (TGFBR2): 116%; remaining activity at 0.5 µM (WNK3): 82.4%; remaining activity at 0.5 µM (ZAK/MLTK): 92.9%; remaining activity at 0.5 µM (c-MET): 108%
COc1cc(Nc2ncc(F)c(Nc3ccc4c(n3)NC(=O)C(C)(C)O4)n2)cc(OC)c1OC [R406, reference compound]	34.5%	0.6%	95.2%	100%	133%	101%	90.3%	99.6%	97.4%	65.2%	25.4%	35%	91.5%	114%	37.4%	5.7%	7%	52.1%	63.6%	85.4%	remaining activity at 0.5 µM (PLK2): 19.4%; remaining activity at 0.5 µM (RIPK3): 107%; remaining activity at 0.5 µM (SIK3): 75.4%; remaining activity at 0.5 µM (TGFBR2): 97.1%; remaining activity at 0.5 µM (WNK3): 77.7%; remaining activity at 0.5 µM (ZAK/MLTK): 85.4%; remaining activity at 0.5 µM (c-MET): 71.4%
